Test results from a melting point compilation (Tetko et al.).

SMILES	melting point [°C]
Cc1ccc(-c2nc(CC(=O)O)cs2)cc1	139 to 141
Cn1ccc(N2CCCC(N)C2=O)n1 (configuration not stated)	79 to 81
CC(C)(C)C(=O)N1CCOC(C(=O)O)C1 (configuration not stated)	148 to 150
CN(c1ccc(F)cc1)S(=O)(=O)c1ccc(Cl)c(C(=O)O)c1	174 to 176
NNC1=NC(=O)C(=O)N1	144 to 146
COc1cc(C=O)cc(Br)c1OC(F)F	90 to 92
O=[N+]([O-])c1ccc(Oc2ccccc2Br)c(Cl)c1	86 to 88
C=C(C#N)C(O)c1ccc([N+](=O)[O-])cc1 (configuration not stated)	64 to 66
CNC(=O)c1ccc(S(=O)(=O)Cl)cc1	125 to 130
c1ccc(CCNc2nc(-c3ccccc3)cs2)cc1	115 to 117
O=c1[nH]c(CO)nc2scc(-c3ccccc3)c12	259 to 261
Nc1cc(F)cc(N2CCOCC2)c1	91 to 93
CCn1c(S)nnc1C1CC1	< 17
Nc1cccc(-n2ccnn2)c1	118 to 120
COCCOc1ccc(C(F)(F)F)cc1NC(=O)C(C)Cl (configuration not stated)	59 to 61
Nc1ccc(S(=O)(=O)NCC2CC2)cc1	109 to 111
O=C(CCl)c1cc(Cl)sc1Cl	43 to 45
Cc1c(C(=O)O)sc2nccn12	241 to 243
Cc1ccc(S(=O)(=O)NC(C(=O)O)C(C)C)cc1 (configuration not stated)	167 to 169
O=C(O)c1c2c(nc3ccc(Br)cc13)CCCC2	291 to 293
CCc1ccc2nc(N)sc2c1	105 to 107
Sc1nnc(N2CCOCC2)s1	179 to 181
Nc1cccc(C(=O)N2CCC(CO)CC2)c1	155 to 157
O=C(O)Cc1cc2c(cc1[N+](=O)[O-])OCCO2	219 to 221

SMILES	melting point [°C]
Nc1ccc(NC(=O)N2CCCCCC2)cc1	132 to 134
Sc1nnc(Nc2ccc(Oc3ccccc3)cc2)s1	183 to 185
OCCNc1cccnn1	77 to 79
Nc1nnc(Cc2ccccc2)s1	170 to 179
Cn1c(-c2ccccc2)c(C(=O)O)c2ccccc21	192 to 194
Cc1cc(N)n(-c2ccncc2)n1	96 to 98
NCc1ccc(NC(=O)c2ccc(F)cc2)cc1	135 to 137
CS(=O)(=O)c1cccnc1	54 to 56
CCN1CCc2nc3ccccc3c(C(=O)O)c2C1	278 to 280
O=C(O)CSCc1coc(-c2ccccc2)n1	124 to 126
NCc1cccc(S(=O)(=O)NCc2cccc(F)c2)c1	101 to 103
Nc1cc(I)ccc1Br	64 to 66
COC(=O)C(N)c1cc(C)c(O)c(C)c1 (configuration not stated)	147 to 149
CCOC(=O)c1ccc(-n2c(C)nc3ccccc3c2=O)cc1	173 to 175
O=S1(=O)C=CC(Br)C1 (configuration not stated)	54 to 55
CC(C)(C)OC(=O)NC(Cc1ccccc1)C(O)C(F)(F)F (configuration not stated)	149 to 151
NC(=O)C1CNCCO1 (configuration not stated)	158 to 160
Oc1cccc(CNCC2CC2)c1	99 to 101
Nc1nccn2ccnc12	212 to 214
O=C(O)c1cc(Cl)no1	139 to 141
CN(C(=O)c1ccc(N)cc1Cl)C1CCCCC1	172 to 174
O=Cc1cn2cccnc2n1	189 to 191
CCS(=O)(=O)c1ccccc1Oc1ccc(N)cc1	124 to 126
NC(=O)CC(F)(F)F	101 to 103

SMILES	melting point [°C]
NC(=O)NC1CCCc2ccccc21 (configuration not stated)	204 to 206
O=C(O)CCOc1ccc(Br)cc1	145 to 147
COC(=O)c1cc(S(=O)(=O)Cl)cc(F)c1F	56 to 58
CC(C)(C)OC(=O)C1CCN(C(=O)OCc2ccccc2)CC1	56 to 58
O=C(O)Cn1ccc([N+](=O)[O-])n1	172 to 174
CC(C)Oc1ccc([N+](=O)[O-])c(C(=O)O)c1	135 to 137
COc1ccc2c(c1)NCCCC2	46 to 48
Cc1cc(N)ccc1-n1cnnn1	135 to 137
Nc1ncc(Cc2ccc(Cl)cc2Cl)s1	109 to 111
Cc1cc(C(=O)O)c(C)n1Cc1ccc(S(N)(=O)=O)cc1	198 to 202
Cc1nn(-c2cccc(Cl)c2)nc1C(=O)O	202 to 204
Cc1cc(C(=O)O)c(C)n1-c1nccs1	173 to 175
CC(C)(C)OC(=O)NCCC(=O)NC(N)=O	162 to 164
COc1ccc(N)cc1OCCO	99 to 101
Cc1ccc(NCCC(N)=S)cc1	94 to 96
Cc1cc2c(cc1C)OC(C(=O)O)C2 (configuration not stated)	149 to 151
O=C(O)c1ccc(N2C(=O)C=CC2=O)cc1	229 to 231
FC(F)(F)c1cnc(-n2cccn2)c(Cl)c1	50 to 52
CS(=O)(=O)c1cccc(C(=O)c2ccc(F)cc2F)c1	129 to 131
CC1(C)CN(C(=O)OC(C)(C)C)c2ccccc2N1	92 to 94
O=C(O)c1cc(Cl)ccc1I	162 to 164
C#CCNC(=O)Nc1ccc(C)cc1	174 to 176
COc1cccc(C2(C)NC(=O)NC2=O)c1 (configuration not stated)	119 to 121
O=C(O)c1cc(Cl)c(Cl)[nH]1	164 to 166

SMILES	melting point [°C]
NNc1ccc(S(=O)(=O)N2CCOCC2)cn1	179 to 181
NC(=O)C1CCC(O)CC1 (configuration not stated)	204 to 206
Nc1ccc(CC(=O)N2CCCC2)cc1	107 to 109
O=C(O)c1cccc(N2C(=O)C=CC2=O)c1	231 to 233
COc1cc(C=O)ccc1OCc1c(C)noc1C	111 to 115
N#Cc1ccc(CNC(=O)CCl)cc1	142 to 144
Cn1c(-c2ccccc2)c(Br)c2ccccc21	59 to 61
COc1ccc2c(c1)C(=NO)C(=O)N2	236 to 238
Cc1cccc2c(O)c(C(=O)O)cnc12	281 to 283
Cc1ccc(C(=O)c2ccc3[nH]c(=O)oc3c2)cc1	206 to 208
N=C(N)NS(=O)(=O)c1ccccc1	211 to 213
CC(Nc1ccc(C(=O)O)cc1[N+](=O)[O-])c1ccccn1 (configuration not stated)	204 to 206
Nc1nnc(-c2cc(F)cc(Br)c2)s1	192 to 194
CC1Oc2ccc(C(=O)CBr)cc2NC1=O (configuration not stated)	147 to 149
Cc1ccc(Cn2nc(C)c(CCC(=O)O)c2C)cc1	134 to 136
CC(CC(=O)O)c1ccc(C(F)(F)F)cc1 (configuration not stated)	88 to 90
O=C(O)c1cc(I)cc(C(F)(F)F)c1	182 to 184
CC1(c2c(F)cccc2F)CC1C(=O)O (configuration not stated)	113 to 115
Cc1cccc(C(=O)N2CCSCC2)c1O	88 to 90
CC(=O)c1ccccc1NS(=O)(=O)c1cccs1	150 to 152
Nc1nc2ccccc2n1-c1ccccc1F	121 to 123
COc1ccc2c(c1)C1(CC2)NC(=O)NC1=O (configuration not stated)	189 to 191
Cc1cc(O)nc(C2CC2)n1	190 to 192
Nc1ccc(CN2CCC(CO)CC2)cc1	165 to 167

SMILES	melting point [°C]
CC(C)(C)OC(=O)N1CCCc2cc(N)ccc21	55 to 57
O=C(Nc1ccccc1Cl)OCC(F)(F)F	44 to 46
Nc1cc(Br)ccc1-n1cccn1	69 to 71
O=C(O)c1ccc(CN2CCCC2=O)cc1	151 to 153
O=C(O)c1cc(Cl)cc(Cl)n1	93 to 95
Cc1ccc2c(c1C)OCCCC2=O	50 to 52
COc1ccc(C2CNC(=O)C2)cc1 (configuration not stated)	126 to 128
O=C(CCl)Nc1ccccc1-c1ccccc1	103 to 106
Cc1ccc(C(=O)N2CCSCC2)cc1O	159 to 161
OC(c1ccccc1)c1cccc(Cl)c1Cl (configuration not stated)	79 to 81
CCOC(=O)C=Cc1ccc2c(c1)OCO2	66 to 68
CCOC(=O)c1nc2ccc(Br)cc2c(=O)[nH]1	261 to 263
O=C(O)C1CC(=O)N(CCOc2ccccc2Cl)C1 (configuration not stated)	138 to 140
O=C(NC(Cc1ccccc1)C(=O)O)c1cccnc1 (configuration not stated)	206 to 208
CC(C)(C)OC(=O)N1CC(=O)NC2CNCCC21 (configuration not stated)	144 to 146
Cc1cc(COc2ccc(C(=O)O)cc2Br)on1	209 to 211
N#Cc1ccc(C(=O)CC(=O)C(F)(F)F)cc1	128 to 130
CC1CC(=O)N(Cc2ccccc2)c2ccccc2N1 (configuration not stated)	110 to 112
CC(N)c1ccc(-n2cncn2)cc1 (configuration not stated)	78 to 80
c1ccc(CCNc2nccs2)cc1	68 to 70
COc1cc(-c2cc(C(=O)O)c3ccccc3n2)cc(OC)c1OC	195 to 197
O=C(O)c1ccccc1Cc1nc2ccccc2s1	182 to 184
N#CCn1cc(Br)cn1	60 to 62
Cc1nccc(C(=O)O)n1	206 to 208

SMILES	melting point [°C]
ON=Cc1ccc(Oc2ncccn2)cc1	177 to 179
O=c1cc(Cl)nc2ccc(Cl)cn12	219 to 221
OC1CC(c2ccccc2F)C1 (configuration not stated)	46 to 48
NC(=O)NCc1ccc([N+](=O)[O-])cc1	199 to 201
Cc1cccc(Cl)c1S(N)(=O)=O	119 to 121
Nc1scnc1-c1ccccc1	130 to 132
O=C(O)CCCc1ccc2[nH]c(=O)[nH]c2c1	244 to 246
O=C(O)c1cc2c(cc1[N+](=O)[O-])OCCO2	221 to 223
O=C1CCCN1c1ccccc1[N+](=O)[O-]	77 to 79
COc1cccc(C(C)=CC(=O)O)c1	102 to 104
COC(=O)C(=O)CC(=O)c1ccc(F)cc1	125 to 135
COc1ccc(C(=O)O)cn1	172 to 174
NC(=O)Nc1ccc(F)c(Cl)c1	166 to 168
N#CC(N)c1ccc2ccccc2c1 (configuration not stated)	116 to 118
Cc1cc(N)n(C2CC3CCC2C3)n1 (configuration not stated)	59 to 61
CC1(c2ccccc2Br)NC(=O)NC1=O (configuration not stated)	219 to 221
CCOc1c(C#N)cnc2ccccc12	98 to 100
COc1ccc(OC)c(-c2nn(-c3ccccc3)cc2C(=O)O)c1	174 to 176
COCCNC(N)=S	118 to 120
Cc1nc(Cc2ccccn2)sc1C(=O)O	189 to 191
CS(=O)(=O)c1ccc(Cl)c(C(=O)O)c1	183 to 185
O=C(O)c1ccon1	143 to 145
